Results reported in publication PMC11237774, “On-target, dual aminopeptidase inhibition provides cross-species antimalarial activity” (mBio, 2024).

Key:
[1] = test system: P. falciparum Dd2 parasites; test: Fractional inhibitory concentration, artemisinin and MMV1557817 interaction; type: cell-based
Protocol: Fractional inhibitory concentrations (FIC) were determined as previously described ([44]). […] The FIC for each drug was determined by EC50 of drug in a mixture/EC50 of drug alone, and the sum of FIC was determined by the addition of the two individual FIC values. Synergistic FIC is described as <1, additive = 1 < 2, and antagonism > 2 ([44]).

HDAC1 = target: T1, HDAC1 (Homo sapiens, UniProt Q13547); test: Eurofins Cerep safety pharmacology screening; type: biochemical; conditions: read-out: Mean % inhibition (n=2); HDAC1, 10 µM
T1 construct: Eurofins Cerep (contract screen)
Text: (§1) Results showing any inhibition or stimulation higher than 50% are considered to represent significant effects of the test compounds.

HDAC10 = target: T2, HDAC10 (Homo sapiens, UniProt Q969S8); test: Eurofins Cerep safety pharmacology screening; type: biochemical; conditions: read-out: Mean % inhibition (n=2); HDAC10, 10 µM
T2 construct: Eurofins Cerep (contract screen)
Text: as §1

HDAC2 = target: T3, HDAC2 (Homo sapiens, UniProt Q92769); test: Eurofins Cerep safety pharmacology screening; type: biochemical; conditions: read-out: Mean % inhibition (n=2); HDAC2, 10 µM
T3 construct: Eurofins Cerep (contract screen)
Text: as §1

HDAC5 = target: T4, HDAC5 (Homo sapiens, UniProt Q9UQL6); test: Eurofins Cerep safety pharmacology screening; type: biochemical; conditions: read-out: Mean % inhibition (n=2); HDAC5, 10 µM
T4 construct: Eurofins Cerep (contract screen)
Text: as §1

HDAC7 = target: T5, HDAC7 (Homo sapiens, UniProt Q8WUI4); test: Eurofins Cerep safety pharmacology screening; type: biochemical; conditions: read-out: Mean % inhibition (n=2); HDAC7, 10 µM
T5 construct: Eurofins Cerep (contract screen)
Text: as §1

HDAC8 = target: T6, HDAC8 (Homo sapiens, UniProt Q9BY41); test: Eurofins Cerep safety pharmacology screening; type: biochemical; conditions: read-out: Mean % inhibition (n=2); HDAC8, 10 µM
T6 construct: Eurofins Cerep (contract screen)
Text: as §1

HDAC9 = target: T7, HDAC9 (Homo sapiens, UniProt Q9UKV0); test: Eurofins Cerep safety pharmacology screening; type: biochemical; conditions: read-out: Mean % inhibition (n=2); HDAC9, 10 µM
T7 construct: Eurofins Cerep (contract screen)
Text: as §1

MMP-14 = target: T8, MMP-14 (Homo sapiens, UniProt P50281); test: Eurofins Cerep safety pharmacology screening; type: biochemical; conditions: read-out: Mean % inhibition (n=2); MMP-14, 10 µM
T8 construct: Eurofins Cerep (contract screen)
Text: as §1

MMP-2 = target: T9, MMP-2 (Homo sapiens, UniProt P08253); test: Eurofins Cerep safety pharmacology screening; type: biochemical; conditions: read-out: Mean % inhibition (n=2); MMP-2, 10 µM
T9 construct: Eurofins Cerep (contract screen)
Text: as §1

MMP-3 = target: T10, MMP-3 (Homo sapiens, UniProt P08254); test: Eurofins Cerep safety pharmacology screening; type: biochemical; conditions: read-out: Mean % inhibition (n=2); MMP-3, 10 µM
T10 construct: Eurofins Cerep (contract screen)
Text: as §1

MMP-7 = target: T11, MMP-7 (Homo sapiens, UniProt P09237); test: Eurofins Cerep safety pharmacology screening; type: biochemical; conditions: read-out: Mean % inhibition (n=2); MMP-7, 10 µM
T11 construct: Eurofins Cerep (contract screen)
Text: as §1

MMP-8 = target: T12, MMP-8 (Homo sapiens, UniProt P22894); test: Eurofins Cerep safety pharmacology screening; type: biochemical; conditions: read-out: Mean % inhibition (n=2), MMP-8, 10 µM
T12 construct: Eurofins Cerep (contract screen)
Text: as §1

MMP-9 = target: T13, MMP-9 (Homo sapiens, UniProt P14780); test: Eurofins Cerep safety pharmacology screening; type: biochemical; conditions: read-out: Mean % inhibition (n=2); MMP-9, 10 µM
T13 construct: Eurofins Cerep (contract screen)
Text: as §1

Plasma stability = type: in vitro ADME; conditions: 37°C
Protocol: After centrifugation, the supernatant was collected and stored at −80°C until analysis. Sample analysis was conducted using a Waters Acquity UPLC and Quattro Premier mass spectrometer operated in a positive electrospray ionization mode with multiple-reaction monitoring (transition [m/z] 395.27 > 362.28, cone voltage 20 V, CID 7 V). […] The injection volume was 3 µL, and the flow rate was 0.4 mL/min. Concentrations were determined by comparison to a calibration curve prepared in blank plasma and processed in the same way as for the samples.

[2] = Binding to Albumax medium by ultracentrifugation; type: in vitro ADME
Protocol: Human plasma was obtained from the Volunteer Blood Donor Registry (Walter & Eliza Hall Institute, Melbourne, Australia), rat plasma was from male Sprague-Dawley rats (Animal Resource Centre, Perth, Western Australia) and mouse plasma was procured as described above. RPMI-1640 media supplemented with 25 mM HEPES, 2 g/L sodium bicarbonate, and 100 mg/L neomycin were additionally supplemented with 5 […] on the day prior to binding assessment. […] Additional aliquots of spiked matrix were maintained at 37°C for 4.2 h but not centrifuged to serve as controls for stability assessment and to obtain a measure of the total concentration in each matrix. Following centrifugation, aliquots of the protein-free supernatant and the non-centrifuged matrix controls were “matrix matched” by addition of an equal volume of the opposite medium (i.e., either blank buffer or blank matrix) and assayed as described above with comparison to calibration standards prepared in 50% matrix/50% PBS.

P. berghei ANKA = test: P. berghei rodent malaria 4-day Peters' suppressive test; type: in vivo, P. berghei (Balb/c mice); conditions: 50 mg/kg oral on days 0, 1, 2, 3 post-infection, read on day 4
Protocol: Female Balb/c mice at 6 weeks of age in groups of 4-5 were infected intraperitoneally with 2 × 10^7 P. berghei ANKA-infected erythrocytes. […] Parasitemia was assessed by visualizing Giemsa-stained thin blood smears by microscopy and a minimum of 1,000 RBCs was counted. […] University Animal Ethics Committee.

MMP2, 7, 8, 9, and 13 = test system: MMP2, 7, 8, 9, and 13; set-up: method as in PMID 30537832; conditions: tested up to 200 µM; cited from earlier work
[3] = test system: human M1 aminopeptidase insulin-regulated aminopeptidase (IRAP); set-up: method as in PMID 30537832; conditions: tested up to 200 µM; cited from earlier work
[4] = In vivo exposure after single oral dosing; conditions: male, Swiss outbred, mouse, plasma, 50 mg/kg
Protocol: This produced a uniform off-white milky suspension of pH 6.0. […] Samples were collected by either submandibular bleed (~120 µL) or terminal cardiac puncture (under inhaled isoflurane anesthesia). Blood samples were centrifuged immediately, and supernatant plasma was removed and stored at −80°C until analysis as described above.

T1 sequence (Q13547 whole entry): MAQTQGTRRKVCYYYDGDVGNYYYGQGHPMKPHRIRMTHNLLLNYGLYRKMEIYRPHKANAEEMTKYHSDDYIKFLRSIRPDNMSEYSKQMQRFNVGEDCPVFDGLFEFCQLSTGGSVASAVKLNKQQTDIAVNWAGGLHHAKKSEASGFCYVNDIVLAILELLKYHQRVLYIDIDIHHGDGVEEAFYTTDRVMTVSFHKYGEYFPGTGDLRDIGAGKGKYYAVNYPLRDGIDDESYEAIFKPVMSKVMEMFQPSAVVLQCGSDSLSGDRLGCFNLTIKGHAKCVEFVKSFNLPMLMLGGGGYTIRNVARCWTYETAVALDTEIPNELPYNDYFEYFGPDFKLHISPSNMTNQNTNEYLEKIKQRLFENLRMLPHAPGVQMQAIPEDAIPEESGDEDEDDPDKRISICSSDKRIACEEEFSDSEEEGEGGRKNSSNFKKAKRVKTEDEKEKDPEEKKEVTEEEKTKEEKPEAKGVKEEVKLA
T5 sequence (Q8WUI4 whole entry): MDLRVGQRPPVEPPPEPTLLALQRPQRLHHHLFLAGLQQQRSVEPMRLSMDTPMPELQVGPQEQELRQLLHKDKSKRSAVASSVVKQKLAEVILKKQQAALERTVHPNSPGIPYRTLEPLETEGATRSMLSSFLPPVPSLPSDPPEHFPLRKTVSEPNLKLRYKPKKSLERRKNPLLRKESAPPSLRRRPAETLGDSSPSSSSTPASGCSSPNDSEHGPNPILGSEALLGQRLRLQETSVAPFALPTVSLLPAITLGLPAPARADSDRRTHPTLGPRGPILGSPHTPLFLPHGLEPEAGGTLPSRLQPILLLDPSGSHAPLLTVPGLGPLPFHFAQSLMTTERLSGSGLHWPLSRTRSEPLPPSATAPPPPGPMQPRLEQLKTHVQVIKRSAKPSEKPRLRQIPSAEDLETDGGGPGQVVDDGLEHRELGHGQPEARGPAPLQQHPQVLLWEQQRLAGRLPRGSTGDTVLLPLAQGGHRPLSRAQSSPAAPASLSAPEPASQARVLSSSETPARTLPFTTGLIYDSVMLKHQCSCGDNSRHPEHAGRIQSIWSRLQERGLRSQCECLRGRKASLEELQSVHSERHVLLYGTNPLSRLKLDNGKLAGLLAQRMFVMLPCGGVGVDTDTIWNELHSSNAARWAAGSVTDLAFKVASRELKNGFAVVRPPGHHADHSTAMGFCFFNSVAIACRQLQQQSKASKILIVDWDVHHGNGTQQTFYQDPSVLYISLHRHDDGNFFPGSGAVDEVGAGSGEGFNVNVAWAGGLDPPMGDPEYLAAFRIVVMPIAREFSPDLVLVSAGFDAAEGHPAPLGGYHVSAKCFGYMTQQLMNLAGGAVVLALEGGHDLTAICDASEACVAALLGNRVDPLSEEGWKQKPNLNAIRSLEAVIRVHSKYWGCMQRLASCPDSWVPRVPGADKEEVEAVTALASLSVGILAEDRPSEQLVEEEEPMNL
T7 sequence (Q9UKV0 whole entry): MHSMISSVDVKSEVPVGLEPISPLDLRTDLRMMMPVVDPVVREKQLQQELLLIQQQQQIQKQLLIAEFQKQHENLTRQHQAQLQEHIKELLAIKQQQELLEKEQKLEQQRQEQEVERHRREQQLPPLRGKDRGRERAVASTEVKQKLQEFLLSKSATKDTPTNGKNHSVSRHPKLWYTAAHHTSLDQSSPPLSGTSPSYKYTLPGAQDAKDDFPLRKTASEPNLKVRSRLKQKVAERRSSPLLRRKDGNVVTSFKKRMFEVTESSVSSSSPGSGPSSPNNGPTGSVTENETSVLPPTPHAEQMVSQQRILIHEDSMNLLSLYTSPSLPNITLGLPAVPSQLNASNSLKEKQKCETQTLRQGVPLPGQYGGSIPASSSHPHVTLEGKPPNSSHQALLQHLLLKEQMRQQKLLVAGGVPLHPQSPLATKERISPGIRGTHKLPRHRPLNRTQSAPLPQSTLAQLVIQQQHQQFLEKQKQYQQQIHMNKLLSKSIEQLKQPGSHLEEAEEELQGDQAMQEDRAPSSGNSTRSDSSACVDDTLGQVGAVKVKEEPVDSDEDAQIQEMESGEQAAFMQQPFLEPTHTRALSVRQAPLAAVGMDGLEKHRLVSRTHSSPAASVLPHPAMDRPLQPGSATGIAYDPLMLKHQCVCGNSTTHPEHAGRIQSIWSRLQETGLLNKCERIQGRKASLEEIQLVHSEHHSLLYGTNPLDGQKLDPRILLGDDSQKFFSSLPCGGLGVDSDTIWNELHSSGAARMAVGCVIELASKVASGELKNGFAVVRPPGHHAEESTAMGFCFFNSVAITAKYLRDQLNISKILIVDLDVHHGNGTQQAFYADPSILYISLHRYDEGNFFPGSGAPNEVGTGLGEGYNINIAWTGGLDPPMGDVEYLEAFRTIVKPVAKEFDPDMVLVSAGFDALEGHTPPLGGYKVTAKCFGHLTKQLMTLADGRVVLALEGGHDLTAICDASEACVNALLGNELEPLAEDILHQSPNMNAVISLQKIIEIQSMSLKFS
T9 sequence (P08253 110-660): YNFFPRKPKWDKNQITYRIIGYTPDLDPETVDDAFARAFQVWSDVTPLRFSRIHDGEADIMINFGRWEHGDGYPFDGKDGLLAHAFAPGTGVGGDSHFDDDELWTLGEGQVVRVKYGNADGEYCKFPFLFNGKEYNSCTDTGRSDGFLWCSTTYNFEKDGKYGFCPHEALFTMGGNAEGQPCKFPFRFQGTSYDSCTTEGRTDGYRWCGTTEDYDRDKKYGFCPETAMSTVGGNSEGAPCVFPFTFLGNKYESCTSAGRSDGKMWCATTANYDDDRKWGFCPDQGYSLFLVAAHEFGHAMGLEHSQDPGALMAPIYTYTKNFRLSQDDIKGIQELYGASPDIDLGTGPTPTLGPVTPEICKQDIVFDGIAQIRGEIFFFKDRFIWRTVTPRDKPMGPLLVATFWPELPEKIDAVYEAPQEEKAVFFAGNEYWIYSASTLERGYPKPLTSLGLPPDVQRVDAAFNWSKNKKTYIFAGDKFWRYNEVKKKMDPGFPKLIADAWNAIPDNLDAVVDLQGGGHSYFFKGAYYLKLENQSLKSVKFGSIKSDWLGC
T13 sequence (P14780 94-707): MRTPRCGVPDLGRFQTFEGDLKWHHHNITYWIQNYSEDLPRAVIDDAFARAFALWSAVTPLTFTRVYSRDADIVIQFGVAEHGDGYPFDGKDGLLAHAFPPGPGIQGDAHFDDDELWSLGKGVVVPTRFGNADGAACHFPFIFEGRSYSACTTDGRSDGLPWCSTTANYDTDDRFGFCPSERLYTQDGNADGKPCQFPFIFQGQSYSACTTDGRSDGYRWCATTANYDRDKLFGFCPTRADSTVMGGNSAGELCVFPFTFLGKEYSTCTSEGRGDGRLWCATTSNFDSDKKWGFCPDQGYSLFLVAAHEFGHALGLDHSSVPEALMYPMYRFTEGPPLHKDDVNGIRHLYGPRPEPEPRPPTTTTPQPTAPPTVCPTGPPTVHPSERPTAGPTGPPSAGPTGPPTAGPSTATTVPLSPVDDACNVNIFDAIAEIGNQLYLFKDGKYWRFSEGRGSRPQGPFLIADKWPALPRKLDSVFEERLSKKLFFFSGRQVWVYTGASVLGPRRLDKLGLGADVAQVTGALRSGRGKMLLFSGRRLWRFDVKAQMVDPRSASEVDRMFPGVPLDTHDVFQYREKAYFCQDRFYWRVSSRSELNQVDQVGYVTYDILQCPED
T6 sequence (Q9BY41 whole entry): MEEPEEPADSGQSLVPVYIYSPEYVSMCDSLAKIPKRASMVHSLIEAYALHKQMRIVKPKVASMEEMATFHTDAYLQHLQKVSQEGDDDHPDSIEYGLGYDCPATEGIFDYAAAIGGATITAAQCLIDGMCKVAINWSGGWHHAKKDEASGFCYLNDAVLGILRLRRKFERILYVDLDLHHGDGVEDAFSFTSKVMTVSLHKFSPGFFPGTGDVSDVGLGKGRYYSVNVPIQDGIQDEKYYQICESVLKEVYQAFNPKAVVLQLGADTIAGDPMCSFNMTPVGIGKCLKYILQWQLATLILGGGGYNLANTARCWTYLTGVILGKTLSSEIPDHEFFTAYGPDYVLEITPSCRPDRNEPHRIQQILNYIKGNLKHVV
T2 sequence (Q969S8 whole entry): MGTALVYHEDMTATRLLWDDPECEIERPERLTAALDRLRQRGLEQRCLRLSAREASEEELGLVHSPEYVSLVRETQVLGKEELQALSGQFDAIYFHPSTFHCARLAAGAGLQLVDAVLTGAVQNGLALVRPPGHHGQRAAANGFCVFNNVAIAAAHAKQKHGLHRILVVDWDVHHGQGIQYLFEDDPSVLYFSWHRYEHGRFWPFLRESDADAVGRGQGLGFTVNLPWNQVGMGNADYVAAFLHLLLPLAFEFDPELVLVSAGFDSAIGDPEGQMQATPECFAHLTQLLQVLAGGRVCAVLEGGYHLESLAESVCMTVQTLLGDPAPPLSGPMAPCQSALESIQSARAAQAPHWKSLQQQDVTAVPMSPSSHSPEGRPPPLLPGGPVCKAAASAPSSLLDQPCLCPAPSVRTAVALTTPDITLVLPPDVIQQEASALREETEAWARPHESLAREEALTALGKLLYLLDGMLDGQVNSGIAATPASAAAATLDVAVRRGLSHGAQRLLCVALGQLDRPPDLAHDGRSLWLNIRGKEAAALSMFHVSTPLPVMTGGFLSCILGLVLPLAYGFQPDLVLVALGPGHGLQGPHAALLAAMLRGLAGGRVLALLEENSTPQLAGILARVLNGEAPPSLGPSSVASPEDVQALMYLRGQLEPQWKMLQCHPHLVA
T12 sequence (P22894 101-467): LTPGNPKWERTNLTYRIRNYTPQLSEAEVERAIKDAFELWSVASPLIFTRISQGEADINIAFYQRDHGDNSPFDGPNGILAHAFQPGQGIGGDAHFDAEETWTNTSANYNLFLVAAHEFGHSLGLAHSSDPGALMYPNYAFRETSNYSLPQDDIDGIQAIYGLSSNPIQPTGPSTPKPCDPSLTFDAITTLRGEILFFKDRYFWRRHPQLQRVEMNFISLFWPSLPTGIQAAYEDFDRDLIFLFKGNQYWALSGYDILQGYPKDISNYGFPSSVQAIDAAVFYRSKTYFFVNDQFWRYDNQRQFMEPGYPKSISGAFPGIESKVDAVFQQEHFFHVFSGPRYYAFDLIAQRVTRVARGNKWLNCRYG

CC(C)(C)CC(=O)NC(C(=O)NO)c1ccc(-c2cc(F)c(F)c(F)c2)cc1 (stereo not drawn) [MMV1557817, N-(2-(hydroxyamino)−2-oxo-1-(3′,4′,5′-trifluoro-[1,1′-biphenyl]-4-yl)ethyl)-3,3-dimethylbutanamide]
MMV1557817 mean FIC ± SEM ([1]; ratio MMV1557817:artemisinin 1:4): 0.87 ± 0.08
MMV1557817 mean FIC ± SEM ([1]; ratio MMV1557817:artemisinin 2:3): 1.13 ± 0.19
MMV1557817 mean FIC ± SEM ([1]; ratio MMV1557817:artemisinin 3:2): 1.10 ± 0.20
MMV1557817 mean FIC ± SEM ([1]; ratio MMV1557817:artemisinin 4:1): 1.05 ± 0.18
MMV1557817 mean FIC ± SEM ([1]; ratio MMV1557817:artemisinin 5:0): 1.00 ± 0.19
inhibition at 10 µM (HDAC1): 2.8%
inhibition at 10 µM (HDAC10): 5.3%
inhibition at 10 µM (HDAC2): 3%
inhibition at 10 µM (HDAC5): -2.8%
inhibition at 10 µM (HDAC7): 7.7%
inhibition at 10 µM (HDAC8): 6.3%
inhibition at 10 µM (HDAC9): -3.6%
inhibition at 10 µM (MMP-14): 24.1%
inhibition at 10 µM (MMP-2): 39.8%
inhibition at 10 µM (MMP-3): -0.8%
inhibition at 10 µM (MMP-7): -6.7%
inhibition at 10 µM (MMP-8): 52.6%
inhibition at 10 µM (MMP-9): 46.3%
remaining at 4 h (Plasma stability; human plasma): 97%
remaining at 4 h (Plasma stability; mouse plasma): 93%
unbound in Albumax medium ([2]; Albumax medium): 15.5%
Albumax media binding ([2]; Albumax medium used for in vitro activity assessment): 84.5%
parasite reduction compared with vehicle control (P. berghei ANKA): 95.4%
off-target inhibition (MMP2, 7, 8, 9, and 13): limited off-target inhibitory affects
off-target inhibition [3]: limited off-target inhibitory affects
AUC(0-inf) [4]: 15.2 µM·h
AUC(0-t) [4]: 14.9 µM·h
Cmax [4]: 5.2 µM
Tmax [4]: 0.5 h
half-life [4]: 4.3 h
